Test results from article PMC11678245, “The Molecular Basis of the Intrinsic and Acquired Resistance to Azole Antifungals in Aspergillus fumigatus” (Journal of Fungi, 2024).
Where “and” joins values, the source holds several entries; their conditions need not be identical. Equal entries are not always repeated. Where two headings read alike, the source gives them in different places.

Legend:
[1] = tested on: S. cerevisiae strain BR (AfCyp51B-6×His, AfCprA2-6×His); experiment: MIC80 susceptibility, strain BR; type: cell-based; conditions: Saccharomyces cerevisiae, 48 h, pH 6.8
Protocol: (§1) The susceptibilities of S. cerevisiae strains to antifungal drugs were determined as minimum growth inhibitory concentration (MIC) values in 200 μL SD pH 6.8 [24]. Serial 2-fold dilutions of 100 μL of azole or control drugs in SD pH 6.8 were prepared in a 96-well microtiter plate. A portion of a 2 mL SD pH 6.8 overnight culture of the test strain was inoculated into 3 mL fresh SD pH 6.8 and incubated for 4 to 6 h at 30 °C to generate logarithmic-phase cells. These cells were then diluted with fresh SD pH 6.8 to OD600nm = 0.01 (3 × 10^4 CFU), and 100 μL of this cell suspension was added to microtiter plate wells. Cell growth after 48 h incubation at 30 °C with shaking at 200 rpm was determined at 600 nm using a BioTek™ Synergy™ 2 multi-Mode microplate reader controlled using Gen5™ Data Analysis Software version 3.16.10 (BioTek Instruments, Winooski, VT, USA). MIC80 values (80% growth inhibition in the presence of the test drug compared with the untreated control) for each yeast construct were determined as technical triplicates repeated three times for three separate clones.

[2] = tested on: S. cerevisiae strain ARE (AfCyp51A-6×His, AfCprA2, AfErg6-FLAG); experiment: MIC80 susceptibility, strain ARE; type: cell-based, Saccharomyces cerevisiae
Protocol: as §1

[3] = tested on: S. cerevisiae strain ADΔΔ (native ScCYP51); experiment: MIC80 susceptibility, host strain ADΔΔ; type: cell-based; conditions: Saccharomyces cerevisiae, Table 2, SD pH 6.8, 48 h, 30 °C
Protocol: as §1

[4] = tested on: S. cerevisiae strain A (AfCyp51A-6×His, native ScCyp51 retained); experiment: MIC80 susceptibility, strain A; type: cell-based; conditions: Saccharomyces cerevisiae, Table 2, SD pH 6.8, 48 h, 30 °C
Protocol: as §1

[5] = molecular target: T1, AfCYP51B-6×His (Aspergillus fumigatus, UniProt E9QY26); experiment: Type II binding of azole drugs (difference spectra)
T1 sequence (E9QY26 1-524): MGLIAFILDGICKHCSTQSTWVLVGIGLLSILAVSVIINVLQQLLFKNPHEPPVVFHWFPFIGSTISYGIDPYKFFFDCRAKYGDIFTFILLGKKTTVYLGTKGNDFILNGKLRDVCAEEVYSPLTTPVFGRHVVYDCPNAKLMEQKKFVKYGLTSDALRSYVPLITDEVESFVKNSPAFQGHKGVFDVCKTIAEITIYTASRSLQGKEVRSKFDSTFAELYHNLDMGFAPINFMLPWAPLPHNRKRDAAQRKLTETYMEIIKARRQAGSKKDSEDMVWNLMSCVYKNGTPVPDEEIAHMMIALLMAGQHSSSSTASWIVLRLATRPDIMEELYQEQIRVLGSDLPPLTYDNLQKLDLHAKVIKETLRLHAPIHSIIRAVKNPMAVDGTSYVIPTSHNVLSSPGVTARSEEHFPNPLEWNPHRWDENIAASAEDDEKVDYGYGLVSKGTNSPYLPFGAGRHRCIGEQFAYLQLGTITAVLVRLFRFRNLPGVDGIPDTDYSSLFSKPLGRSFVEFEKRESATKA
Protocol: The concentration of AfCYP51A and AfCYP51B, purified using Ni-NTA affinity chromatography and used for the spectrophotometric type I and type II binding assays, was calculated using an extinction co-efficient of λ417nm = 117 mM^−1 cm^−1 applied to the absolute absorption spectrum of the preparations. In addition, the amount of “active” cytochrome P450 enzyme was determined using the carbon monoxide (CO) binding spectra of these preparations.
Type II binding difference spectra were obtained using 1 μM of affinity-purified CYP51 enzymes. VCZ, PCZ, VT-1161, DCZ, and MCF working solutions were prepared in DMSO, while FLC was prepared in Milli-Q water. Azole drugs were added to the sample cuvette, and corresponding amounts of DMSO or Milli-Q water were added to the reference cuvette. Drug binding curves were plotted using the difference spectrum peak and trough detected in the range of 410–425 nm. Dissociation constants (Kd) were determined by nonlinear regression (Levenberg–Marquardt algorithm) of the difference in absorbance between the peak and trough against the azole concentration using a rearrangement of the Morrison equation or the Hill equation [7]. GraphPad Prism 9.2.0 software was used to identify the best fit for the data.

[6] = tested on: S. cerevisiae strain BRE (AfCyp51B-6×His, AfCprA2, AfErg6-FLAG); experiment: MIC80 susceptibility, strain BRE; type: cell-based, Saccharomyces cerevisiae; conditions: strain BRE; for MIC80 / MIC: ± SD; for MIC: 48 h
Protocol: as §1

[7] = tested on: S. cerevisiae strain AR (AfCyp51A-6×His, AfCprA2-6×His); experiment: MIC80 susceptibility, strain AR; type: cell-based, Saccharomyces cerevisiae; conditions: Saccharomyces cerevisiae, 48 h, pH 6.8
Protocol: as §1

[8] = tested on: S. cerevisiae strain ARE Y121F (AfCyp51A-6×His Y121F, AfCprA2, AfErg6-FLAG); experiment: MIC80 susceptibility, strain Y121F; type: cell-based, Saccharomyces cerevisiae
Protocol: as §1

[9] = tested on: S. cerevisiae strain ARE T289A (AfCyp51A-6×His T289A, AfCprA2, AfErg6-FLAG); experiment: MIC80 susceptibility, strain T289A; type: cell-based, Saccharomyces cerevisiae; conditions: for MIC80: ± SD
Protocol: as §1

[10] = tested on: S. cerevisiae strain ARE I301T (AfCyp51A-6×His I301T, AfCprA2, AfErg6-FLAG); experiment: MIC80 susceptibility, strain I301T; type: cell-based, Saccharomyces cerevisiae; conditions: for MIC80: ± SD
Protocol: as §1

[11] = tested on: S. cerevisiae strain ARE Y121F T289A (AfCyp51A-6×His Y121F T289A, AfCprA2, AfErg6-FLAG); experiment: MIC80 susceptibility, strain Y121F T289A; type: cell-based, Saccharomyces cerevisiae
Protocol: as §1

[12] = tested on: S. cerevisiae strain ADLS overexpressing ScCYP51-6×His; experiment: MIC80 susceptibility, strain ADLS; type: cell-based, Saccharomyces cerevisiae
Protocol: as §1

[13] = tested on: S. cerevisiae Y2300 ADΔΔ CYP51 (ScCYP51); experiment: MIC80 susceptibility, strain Y2300 (Table S1); type: cell-based, Saccharomyces cerevisiae; conditions: Table S1; strain Y2300 ADΔΔ CYP51
Protocol: as §1, with “clones. […]” for “clones.”
(§2) Table S1. Azole susceptibilities of ScCYP51 and ScCYP51 T322I expressed
(§3) Data for each strain was obtained for […] in three biological replicates.

[14] = tested on: S. cerevisiae Y2305 ADΔΔ CYP51 T322I (ScCYP51 T322I); experiment: MIC80 susceptibility, strain Y2305 (Table S1); type: cell-based, Saccharomyces cerevisiae
Protocol: as §1, with “clones. […]” for “clones.”
as §2, §3

[15] = Saccharomyces cerevisiae, 48 h, pH 6.8
[16] = Saccharomyces cerevisiae, 48 h, read-out: MIC80
[17] = Saccharomyces cerevisiae, Table 3, strain ARE, ± SD, read-out: MIC80
[18] = Saccharomyces cerevisiae, Table 3
[19] = Saccharomyces cerevisiae, Table 3, read-out: MIC80
[20] = Saccharomyces cerevisiae, Table 3, strain ARE Y121F, ± SD, read-out: MIC80
[21] = Saccharomyces cerevisiae, Table 3, strain ARE T289A, read-out: MIC80
[22] = Saccharomyces cerevisiae, Table 3, strain ARE I301T, read-out: MIC80
[23] = Saccharomyces cerevisiae, Table 3, strain ARE Y121F T289A, ± SD, read-out: MIC80
[24] = Table 3, strain ARE Y121F, ± SD
[25] = Table 3, strain ARE Y121F T289A, ± SD

SMILES: CC1COC(Cn2cncn2)(c2ccc(Oc3ccc(Cl)cc3)cc2Cl)O1 (centres unmarked) [DCZ, difenoconazole]
- MIC80 [1]: < 0.01 µM
- MIC80 [2, 15]: 0.64 ± 0.04 µM
- MIC80 [3]: < 0.01 µM
- MIC80 [4]: 0.01 µM
- λpeak (type II difference spectrum) ([5]; 1 μM enzyme): 426 nm
- λtrough (type II difference spectrum) ([5]; 1 μM enzyme): 410 nm
- ΔAmax (type II binding) ([5]; 1 μM enzyme, Hill equation): 0.10
- Hill Number ([5]; type II binding): 1.55
- Kd ([5]; type II binding, 1 μM enzyme, Hill equation): 1760 ± 80 nM
- MIC80 ([6]; Saccharomyces cerevisiae, Table 2, SD pH 6.8, 48 h, 30 °C, read-out: MIC80): < 0.01 µM
- MIC80 [7]: 0.07 ± 0.01 µM
- increased susceptibility of AfCYP51A Y121F mutant (vs ARE) [8]: 2 fold
- MIC80 [8, 15]: 0.37 ± 0.02 µM
- greater susceptibility (MIC80) of strain T289A compared with strain ARE [9]: 64 fold
- MIC80 ([9]; Saccharomyces cerevisiae, 48 h, pH 6.8, Table 2, strain T289A, SD pH 6.8, 48 h, 30 °C): < 0.01 µM
- MIC80 ([10]; Saccharomyces cerevisiae, 48 h, pH 6.8, Table 2, strain I301T, SD pH 6.8, 48 h, 30 °C): 0.35 ± 0.06 µM
- increase in resistance (MIC80) of strain Y121F T289A compared with strain ARE [11]: 1.5 fold
- MIC80 [11, 15]: 0.92 ± 0.07 µM
- MIC80 [12, 15]: 0.04 ± 0.02 µM
- MIC80 ([12]; Table 2, strain ADLS, SD pH 6.8, 48 h, 30 °C, ± SD): 0.04 ± 0.01 µM

SMILES: CCC(C)n1ncn(-c2ccc(N3CCN(c4ccc(OCC5COC(Cn6cncn6)(c6ccc(Cl)cc6Cl)O5)cc4)CC3)cc2)c1=O (centres unmarked) [ITC]
- MIC80 [13]: 0.15 ± 0.01 µM
- MIC80 [14]: 0.13 ± 0.01 µM

SMILES: C[C@@H](c1nc(-c2ccc(C#N)cc2)cs1)[C@](O)(Cn1cncn1)c1cc(F)ccc1F [IVC, isavuconazole]
- lower susceptibility of strain ARE compared to strain BRE [2]: 2 fold
- MIC [2, 16]: < 0.0156 µM
- MIC80 [2, 17]: 0.021 ± 0.007 µM
- MIC [6, 18]: < 0.0156 µM
- MIC80 [6, 19]: 0.0109 ± 0.003 µM
- increase in resistance (MIC80) of strain Y121F compared with strain ARE [8]: 3- to 5 fold and 3 fold
- MIC80 [8, 20]: 0.071 ± 0.014 µM
- MIC80 [9, 21]: 0.0102 ± 0.0057 µM
- MIC80 [10, 22]: 0.0119 ± 0.0028 µM
- increase in resistance (MIC80) of strain Y121F T289A compared with strain ARE [11]: 3- to 5 fold
- MIC80 [11, 23]: 0.11 ± 0.011 µM

SMILES: OC(Cn1cncn1)(Cn1cncn1)c1ccccc1 [MCC7915]
- MIC80 ([2]; Table 3, strain ARE, ± SD): 427 ± 23 µM
- reduced susceptibility compared to FLC ([2]; strain ARE): 2.5 fold
- MIC80 ([6]; Table 3): 223 ± 79 µM
- reduced susceptibility compared to FLC [6]: 50 fold
- MIC80 [8, 24]: 180 ± 11 µM
- MIC80 ([9]; Table 3, strain ARE T289A): 248 ± 23 µM
- MIC80 ([10]; Table 3, strain ARE I301T): 278 ± 45 µM
- MIC80 [11, 25]: 219 ± 29 µM

SMILES: OC(Cn1cncn1)(Cn1cncn1)c1ccccc1F [MCC7916]
- MIC80 ([2]; Table 3, strain ARE, ± SD): 120 ± 40 µM
- MIC80 ([6]; Table 3): 21 ± 3 µM
- MIC80 [8, 24]: 80 ± 17 µM
- MIC80 ([9]; Table 3, strain ARE T289A): 52 ± 6 µM
- MIC80 ([10]; Table 3, strain ARE I301T): 51 ± 6 µM
- MIC80 [11, 25]: 198 ± 41 µM

SMILES: OC(Cn1cncn1)(Cn1cncn1)c1ccc(F)cc1 [MCC7917]
- MIC80 ([2]; Table 3, strain ARE, ± SD): 411 ± 30 µM
- MIC80 ([6]; Table 3): 38 ± 11 µM
- MIC80 [8, 24]: 179 ± 9 µM
- MIC80 ([9]; Table 3, strain ARE T289A): 103 ± 11 µM
- MIC80 ([10]; Table 3, strain ARE I301T): 257 ± 37 µM
- MIC80 [11, 25]: 242 ± 41 µM

SMILES: OC(Cn1cncn1)(Cn1cncn1)c1cc(F)ccc1F [MCC8768]
- MIC80 ([2]; Table 3, strain ARE, ± SD): 354 ± 76 µM
- reduced susceptibility compared to FLC ([2]; strain ARE): ~ 3 fold
- MIC80 ([6]; Table 3): 25 ± 8 µM
- reduced susceptibility compared to FLC [6]: > 6 fold
- MIC80 [8, 24]: 324 ± 109 µM
- MIC80 ([9]; Table 3, strain ARE T289A): 106 ± 28 µM
- reduced susceptibility compared to FLC ([9]; strain T289A): > 6 fold
- MIC80 ([10]; Table 3, strain ARE I301T): 211 ± 21 µM
- reduced susceptibility compared to FLC ([10]; strain I301T): ~ 3 fold
- MIC80 [11, 25]: 1025 ± 148 µM

SMILES: C[C@@H](c1nc(-c2ccc(C#N)cc2)cs1)[C@](O)(Cn1cncn1)c1ccc(F)cc1F [RVC, ravuconazole]
- lower susceptibility of strain ARE compared to strain BRE [2]: 2 fold
- MIC [2, 16]: < 0.0156 µM
- MIC80 [2, 17]: 0.0088 ± 0.0023 µM
- MIC [6, 18]: < 0.0156 µM
- MIC80 [6, 19]: 0.0038 ± 0.0008 µM
- increase in resistance (MIC80) of strain Y121F compared with strain ARE [8]: 3- to 5 fold and 6 fold
- MIC80 [8, 20]: 0.047 ± 0.005 µM
- MIC80 [9, 21]: 0.0032 ± 0.0015 µM
- MIC80 [10, 22]: 0.0034 ± 0.0015 µM
- increase in resistance (MIC80) of strain Y121F T289A compared with strain ARE [11]: 3- to 5 fold
- MIC80 [11, 23]: 0.033 ± 0.006 µM
